Several values for one entry are separate records, joined by “and”; a condition that tells them apart may be missing. Equal values may be shown once. Read-outs that look alike come from different tables or passages of the source.
Target: T1, human recombinant active HPK1 (Homo sapiens, UniProt Q92918)
T1 construct: purchased Reaction Biology Corp., Malvern, PA, USA (contract assay)
Assay: radiometric HotSpot kinase assay (33P-ATP, myelin basic protein substrate)
Type: biochemical
Settings: for inhibition at 25 µM: 25 µM compound; for inhibition at 25 µM / inhibition at 50 µM: duplicate; for inhibition at 50 µM: 50 µM compound
Protocol: The in vitro inhibitory activity of the fifteen purchased compounds against recombinant human HPK1 was evaluated using a radiometric HotSpot^TM kinase assay. The results were expressed as a percentage of the remaining kinase activity relative to its activity in negative control reactions (DMSO). […] Six hits (ISR-03, ISR-04, ISR-05, ISR-10, ISR-13, and ISR-11) were selected for IC50 value determination.
The selected compounds were purchased from ASINEX (ASINEX, Amsterdam, The Netherlands) and OTAVA lead-like (OTAVA Ltd., Vaughan, ON, Canada) via local vendors. […] In brief, this assay was performed by preparing the kinase substrate (myelin basic protein) with a concentration of 20 µM in freshly prepared base reaction buffer (20.0 mM Hepes (pH 7.5), 10.0 mM MgCl2, 1.0 mM EGTA, 0.01% Brij35, 0.02 mg/mL BSA, 0.1 mM Na3VO4, 2.0 mM DTT, and 1% DMSO). Then, the kinase enzyme was delivered into the substrate solution by gently mixing, followed by adding the tested compounds dissolved in 100% DMSO using the Echo550 liquid handler and incubated for 20 min at room temperature. Finally, the reaction was initiated by the addition of ^33P-γ-ATP with a concentration of 10.0 µM and incubated for 2 h at room temperature. The percentage of kinase activity was detected using the P81 filter-binding method. For IC50 determination, the compounds’ inhibitory activity was tested at 10 concentrations (100 µM, 33.3 µM, 11.10 µM, 3.70 µM, 1.23 µM, 0.412 µM, 0.137 µM, 45.70 nM, 15.20 nM, and 5.08 nM) in one independent experiment in duplicate mode and prepared using 3-fold serial dilutions. The percentage of remaining kinase activity in tested samples was determined first, and then Prism GraphPad software version 10.2.0 (nonlinear regression/variable slope) was used to obtain the IC50 values and curve fits.

[1] = 10 concentrations, 3-fold dilution from 100 µM, 10 µM ATP, mean ± SD where given, read-out: IC50
[2] = Prism fit table of single inhibition curve (A/B replicate), Figure 3, unit inferred, read-out: EC50 (the source's name)

T1 sequence (Q92918 whole entry): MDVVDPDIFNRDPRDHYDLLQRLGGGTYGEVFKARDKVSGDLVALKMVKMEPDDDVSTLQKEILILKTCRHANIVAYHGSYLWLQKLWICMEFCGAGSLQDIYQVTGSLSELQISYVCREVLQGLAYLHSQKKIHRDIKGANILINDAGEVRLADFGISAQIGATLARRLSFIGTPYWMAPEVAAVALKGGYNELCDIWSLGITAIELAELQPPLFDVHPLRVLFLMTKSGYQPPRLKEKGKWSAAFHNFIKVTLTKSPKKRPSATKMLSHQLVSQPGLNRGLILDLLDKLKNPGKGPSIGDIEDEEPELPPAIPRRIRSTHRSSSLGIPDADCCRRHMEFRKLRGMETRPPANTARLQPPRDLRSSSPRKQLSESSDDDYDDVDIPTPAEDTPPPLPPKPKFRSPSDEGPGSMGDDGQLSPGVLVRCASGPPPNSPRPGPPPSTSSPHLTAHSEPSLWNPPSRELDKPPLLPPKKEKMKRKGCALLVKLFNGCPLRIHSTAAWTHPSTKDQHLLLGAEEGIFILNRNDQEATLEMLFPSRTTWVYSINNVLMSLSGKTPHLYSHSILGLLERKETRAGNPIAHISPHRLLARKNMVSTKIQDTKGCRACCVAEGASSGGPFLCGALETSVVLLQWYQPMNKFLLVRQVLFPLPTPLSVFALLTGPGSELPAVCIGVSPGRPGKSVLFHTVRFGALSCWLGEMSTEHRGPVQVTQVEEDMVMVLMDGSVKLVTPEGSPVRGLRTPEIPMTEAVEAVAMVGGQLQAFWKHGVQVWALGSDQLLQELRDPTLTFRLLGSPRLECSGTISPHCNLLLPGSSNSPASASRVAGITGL

inhibition at 25 µM (10 µM ATP) [%] | inhibition at 50 µM (10 µM ATP) [%] | IC50 [1] [µM] | IC50 [2] | SMILES
26.6 | 52.4 | 43.9 | 44 µM and 43.8 µM | COc1ccc2[nH]c(=O)c(CNc3ccccc3NC(C)=O)cc2c1 [ISR-03]
2.44 | 10.1 | > 100 |  | CCCNC(=O)c1cc2c(=O)n3cccc(C)c3nc2s1 [ISR-04]
0 | 13.9 | 24.2 | 20.6 µM and 27.7 µM | Cc1cccn2c(=O)c3cc(C(=O)Nc4ccccc4C(N)=O)sc3nc12 [ISR-05]

Source: PMC12072202, “Identification of Novel HPK1 Hit Inhibitors: From In Silico Design to In Vitro Validation” (International Journal of Molecular Sciences, 2025)
